# Measurements from PMC5591292, “Identification of Purple Acid Phosphatases in Chickpea and Potential Roles of CaPAP7 in Seed Phytate Accumulation” (Scientific Reports, 2017).
# Molecular target: T1, CaPAP7 (Cicer arietinum, UniProt A0A1S2YHG0)
# T1 construct: gene PAP7; ORF PCR product of 1008 bp (about 335 residues) in pET28a, E. coli BL21(DE3) pLysS, Ni-NTA purified, ~38 kDa on SDS-PAGE; signal peptide predicted but protein cytoplasmic
# T1 sequence (A0A1S2YHG0 1-335): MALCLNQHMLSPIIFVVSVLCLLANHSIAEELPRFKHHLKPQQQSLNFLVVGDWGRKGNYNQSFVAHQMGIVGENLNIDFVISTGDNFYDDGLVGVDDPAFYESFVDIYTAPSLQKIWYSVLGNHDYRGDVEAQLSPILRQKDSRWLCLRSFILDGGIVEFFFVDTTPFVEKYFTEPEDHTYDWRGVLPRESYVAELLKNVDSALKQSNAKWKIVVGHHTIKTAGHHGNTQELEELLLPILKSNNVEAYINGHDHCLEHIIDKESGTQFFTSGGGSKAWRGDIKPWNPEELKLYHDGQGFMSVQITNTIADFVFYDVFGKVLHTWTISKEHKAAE
# Test: phosphatase activity assay, […] min
# Assay type: biochemical
# Details: 10 mM substrate, 37 °C; maximum activity among substrates tested
compound,measurement,value
O=P(O)(O)O[C@H]1[C@H](OP(=O)(O)O)[C@@H](OP(=O)(O)O)[C@H](OP(=O)(O)O)[C@@H](OP(=O)(O)O)[C@H]1OP(=O)(O)O [phytic acid],"phosphatase activity assay, 30 min",it exhibited maximum catalytic activity for phytic acid
